{
  "source": "patent US8492350B2",
  "about": "“Therapeutic agent for pain disease” (Nippon Zoki Pharmaceutical Co., Ltd., priority 2007, dated 2013)",
  "key": {"[1]": {"test_system": "Chung model rats which are models of neuropathic pain", "assay": "Test for analgesic effect (allodynia, von Frey filament, up-down method) in Chung model rats", "type": "in vivo, rats of Wistar strain", "settings": "for 50% Reaction Threshold Values, Before Administration: baseline", "protocol": "Test for analgesic effect was conducted using Chung model rats which are models of neuropathic pain. Male rats of Wistar strain of 9 weeks age were used as experimental animals and model rats were prepared according to a method of Kim and Chung (Pain, vol. 50, pages 355 to 363, 1992). Thus, when they were in 10 weeks age, rat L5 spinal nerve was exposed and the periphery side of L5 dorsal root ganglion was strongly ligated with 5-0 silk yarn under anesthetizing with pentobarbital (40 mg/kg, intraperitoneal administration) to conduct a nerve damage. The animals were placed in a transparent acrylic cage where the bottom was wire net, 50% reaction threshold values were calculated by an up-down method using a von Frey filament (manufactured by North Coast Medical Inc.) according to a method of Chaplan, et al. (J. Neurosci. Method, vol. 53, pages 55 to 63, 1994) and the effect of the test substance to allodynia was measured. […] In those experimental animals, each group comprised seven animals using the 50% reaction threshold values after the nerve damage as an index and the group constitution was done in such a manner that mean values of a nerve damage control group and of a test substance-administered group were made nearly uniform.\nN-acetylneuraminic acid as a test substance was intraperitoneally administered in a single dose (120 mg/kg). A 0.5% CMC-Na (w/v) solution/physiological saline was similarly administered to the nerve damage control group (control group). After 30 minutes from the administration of a test substance, pain tests were conducted and the calculated 50% reaction threshold values were expressed in terms of mean value±standard deviation for each group.\nFurther, in the same manner as the above test, N-acetylneuraminic acid as a test substance was orally administered in a single dose (300 mg/kg). Injection solvent was administered to a nerve damage control group (control group) in the same manner. After 60 minutes from the administration of a test substance, pain tests were conducted and the 50% reaction threshold values were calculated. Numbers of the animals were eight for each of the nerve damage control group and the test substance-administered group."}, "[2]": {"settings": "disclosed in Patent Document 1 / Example 8 of Japanese Examined Patent Publication No. 63/028,411; cited from earlier work"}},
  "data": [
    {"compound": "CC(=O)N[C@H]1[C@H]([C@H](O)[C@H](O)CO)OC(O)(C(=O)O)C[C@@H]1O", "note": "(stereo partly shown) [N-Acetylneuraminic Acid, N-acetylneuraminic acid]", "values": [
      {"measurement": "50% reaction threshold value as compared with the nerve damage control group (anti-allodynia action)", "setting": "[1]; both single intraperitoneal injection and single oral administration", "result": "significant rise"},
      {"measurement": "50% Reaction Threshold Values, Before Administration", "setting": "[1]; group later given a single intraperitoneal dose of 120 mg/kg, mean ± standard deviation", "result": "2.63 ± 0.21", "unit": "g"},
      {"measurement": "50% Reaction Threshold Values, Before Administration", "setting": "[1]; group later given a single oral dose of 300 mg/kg", "result": "2.75 ± 0.15", "unit": "g"},
      {"measurement": "50% Reaction Threshold Values, After 30 minutes from Administration", "setting": "[1]; single intraperitoneal dose 120 mg/kg, 30 minutes after administration, mean ± standard deviation, *P < 0.05 vs nerve damage control", "result": "6.74 ± 1.64* g"},
      {"measurement": "50% Reaction Threshold Values, After 60 minutes from Administration", "setting": "[1]; single oral dose 300 mg/kg, 60 minutes after administration, *P < 0.05 vs nerve damage control", "result": "4.81 ± 0.35* g"},
      {"measurement": "Acute toxicity", "setting": "[2]", "result": "very low and safe"}
    ]},
    {"compound": "CC(=O)N[C@H]1[C@H]([C@H](O)[C@H](O)CO)OC(O)(C(=O)[O-])C[C@@H]1O.[Na+]", "note": "(stereo partly shown) [sodium N-acetylneuraminate]", "values": [
      {"measurement": "Acute toxicity", "setting": "[2]", "result": "very lowly toxic"}
    ]}
  ]
}
